Assay results taken from patent US9676773B2, “Azaindole derivative” (TAIHO PHARMACEUTICAL CO., LTD., priority 2014, dated 2017).

Tests used:
Type in all cases: biochemical
[1] = biological target: T1, purified recombinant human JAK1 protein (Homo sapiens, UniProt P23458); test: Measurement of JAK1 kinase-inhibitory activity; settings: substrate peptide 1 μM, ATP 75 M (so in the source), 25° C., 120 minutes
T1 construct: purchased Carna Biosciences, Inc
Protocol: 1) Measurement of JAK1 Kinase-Inhibitory Activity
The activity of the compound of the present invention to inhibit the activity of JAK1 kinase was measured.
(§1) Among materials for the measurement of this inhibitory activity, a substrate peptide and a kinase protein were acquired as follows. As such a substrate peptide, a substrate peptide for QSS Assist™ JAK1-MSA assay kit (Carna Biosciences, Inc.) was purchased. As such a kinase protein, a purified recombinant human JAK1 protein (Carna Biosciences, Inc.) was purchased.
The method for measuring the inhibitory activity is as follows. First, the compounds of the present invention were each dissolved in dimethyl sulfoxide (DMSO), and a serial dilution was then prepared by the use of DMSO. Subsequently, a serial dilution solution of the compound (the final concentration of DMSO upon a kinase reaction: 5.0%) or DMSO (final concentration: 5.0%) was mixed with a solution containing the substrate peptide (final concentration: 1 μM), magnesium chloride (final concentration: 5 mM) and ATP (final concentration: 75 µM) in a buffer for kinase reaction (20 mM HEPES (pH 7.5), 2 mM dithiothreitol and 0.01% Triton X-100). Thereafter, a JAK1 protein was further added to the mixed solution, and the obtained mixture was then incubated at 25° C. for 120 minutes to carry out a kinase reaction. To the reaction solution, EDTA was added to a final concentration of 30 mM, so as to terminate the reaction. Finally, with LabChip EZ Reader II (Perkin Elmer Corp.), an unphosphorylated substrate peptide (S) and a phosphorylated peptide (P) were subjected to microchannel capillary electrophoresis, so that the two peptides were separated from each other and were then detected. The amount of a phosphorylation reaction was obtained based on the heights of the peaks of S and P, and the concentration of the compound capable of inhibiting 50% of the phosphorylation reaction was defined as an IC50 value (nM).

[2] = biological target: T2, purified recombinant human JAK2 protein (Homo sapiens, UniProt O60674); test: Measurement of JAK2 kinase-inhibitory activity; settings: FL-Peptide 22 1 μM, ATP 10 μM, 25° C., 80 minutes
T2 construct: purchased Carna Biosciences, Inc
Protocol: 2) Measurement of JAK2 Kinase-Inhibitory Activity
The activity of the compound of the present invention to inhibit the activity of JAK2 kinase was measured.
as §1, with “FL-Peptide 22 (Perkin Elmer Corp.)” for “a substrate peptide for QSS Assist™ JAK1-MSA assay kit (Carna Biosciences, Inc.)”, “JAK2” for “JAK1”
(§2) The method for measuring the inhibitory activity is as follows. First, a serial dilution of the compound of the present invention was prepared by the same method as that described in the above section regarding JAK1. This serial dilution solution (the final concentration of DMSO upon a kinase reaction: 5.0%) or DMSO (final concentration: 5.0%) was mixed with a solution containing the substrate peptide (final concentration: 1 μM), magnesium chloride (final concentration: 10 mM) and ATP (final concentration: 10 μM) in a buffer for kinase reaction (15 mM Tris (pH 7.5), 2 mM dithiothreitol and 0.01% Tween 20). Thereafter, a JAK2 protein was further added to the mixed solution, and the obtained mixture was then incubated at 25° C. for 80 minutes to carry out a kinase reaction. To the reaction solution, EDTA was added to a final concentration of 30 mM, so as to terminate the reaction. After termination of the reaction, the measurement and the data analysis were carried out by the same methods as those described in the above section regarding JAK1.

[3] = biological target: T3, purified recombinant human JAK3 protein (Homo sapiens, UniProt P52333); test: Measurement of JAK3 kinase-inhibitory activity; settings: substrate peptide 1 μM, ATP 5 μM, 25° C., 80 minutes
T3 construct: purchased Carna Biosciences, Inc
T3 sequence (P52333 1-1124): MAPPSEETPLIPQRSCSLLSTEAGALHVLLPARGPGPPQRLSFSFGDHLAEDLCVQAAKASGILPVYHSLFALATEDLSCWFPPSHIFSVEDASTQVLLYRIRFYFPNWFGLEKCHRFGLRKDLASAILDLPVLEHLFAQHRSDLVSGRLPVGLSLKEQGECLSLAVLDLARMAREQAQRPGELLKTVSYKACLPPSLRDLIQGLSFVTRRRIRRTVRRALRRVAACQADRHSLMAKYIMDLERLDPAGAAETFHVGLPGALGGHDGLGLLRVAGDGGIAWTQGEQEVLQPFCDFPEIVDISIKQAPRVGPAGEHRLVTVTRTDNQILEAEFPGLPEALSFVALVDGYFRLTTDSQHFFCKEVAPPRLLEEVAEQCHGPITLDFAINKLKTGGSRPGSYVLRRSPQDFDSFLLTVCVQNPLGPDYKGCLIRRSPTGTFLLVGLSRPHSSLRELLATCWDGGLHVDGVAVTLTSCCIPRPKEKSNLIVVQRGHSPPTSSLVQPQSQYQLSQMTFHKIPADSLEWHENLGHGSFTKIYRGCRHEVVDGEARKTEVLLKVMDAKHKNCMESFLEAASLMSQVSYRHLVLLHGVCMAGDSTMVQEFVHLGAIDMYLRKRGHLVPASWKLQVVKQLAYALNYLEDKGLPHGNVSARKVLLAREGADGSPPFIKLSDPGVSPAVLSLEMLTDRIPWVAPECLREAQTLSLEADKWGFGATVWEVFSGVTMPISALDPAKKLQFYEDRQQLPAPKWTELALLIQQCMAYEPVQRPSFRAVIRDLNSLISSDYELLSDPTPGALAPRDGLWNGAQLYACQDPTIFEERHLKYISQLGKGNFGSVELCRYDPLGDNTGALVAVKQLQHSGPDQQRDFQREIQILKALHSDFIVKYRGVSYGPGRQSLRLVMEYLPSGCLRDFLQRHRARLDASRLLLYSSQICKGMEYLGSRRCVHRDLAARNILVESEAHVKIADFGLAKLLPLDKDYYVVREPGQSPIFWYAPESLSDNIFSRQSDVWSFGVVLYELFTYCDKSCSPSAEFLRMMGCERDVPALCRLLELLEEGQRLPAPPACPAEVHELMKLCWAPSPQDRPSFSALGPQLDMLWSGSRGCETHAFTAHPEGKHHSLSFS
Protocol: 3) Measurement of JAK3 Kinase-Inhibitory Activity
The activity of the compound of the present invention to inhibit the activity of JAK3 kinase was measured.
as §1, with “JAK3-MSA” for “JAK1-MSA”, “JAK3” for “JAK1”
as §2, with “5” for “10”, “(20” for “(15”, “HEPES” for “Tris”, “Triton X-100).” for “Tween 20).”, “JAK3” for “JAK2”

T1 sequence (P23458 whole entry): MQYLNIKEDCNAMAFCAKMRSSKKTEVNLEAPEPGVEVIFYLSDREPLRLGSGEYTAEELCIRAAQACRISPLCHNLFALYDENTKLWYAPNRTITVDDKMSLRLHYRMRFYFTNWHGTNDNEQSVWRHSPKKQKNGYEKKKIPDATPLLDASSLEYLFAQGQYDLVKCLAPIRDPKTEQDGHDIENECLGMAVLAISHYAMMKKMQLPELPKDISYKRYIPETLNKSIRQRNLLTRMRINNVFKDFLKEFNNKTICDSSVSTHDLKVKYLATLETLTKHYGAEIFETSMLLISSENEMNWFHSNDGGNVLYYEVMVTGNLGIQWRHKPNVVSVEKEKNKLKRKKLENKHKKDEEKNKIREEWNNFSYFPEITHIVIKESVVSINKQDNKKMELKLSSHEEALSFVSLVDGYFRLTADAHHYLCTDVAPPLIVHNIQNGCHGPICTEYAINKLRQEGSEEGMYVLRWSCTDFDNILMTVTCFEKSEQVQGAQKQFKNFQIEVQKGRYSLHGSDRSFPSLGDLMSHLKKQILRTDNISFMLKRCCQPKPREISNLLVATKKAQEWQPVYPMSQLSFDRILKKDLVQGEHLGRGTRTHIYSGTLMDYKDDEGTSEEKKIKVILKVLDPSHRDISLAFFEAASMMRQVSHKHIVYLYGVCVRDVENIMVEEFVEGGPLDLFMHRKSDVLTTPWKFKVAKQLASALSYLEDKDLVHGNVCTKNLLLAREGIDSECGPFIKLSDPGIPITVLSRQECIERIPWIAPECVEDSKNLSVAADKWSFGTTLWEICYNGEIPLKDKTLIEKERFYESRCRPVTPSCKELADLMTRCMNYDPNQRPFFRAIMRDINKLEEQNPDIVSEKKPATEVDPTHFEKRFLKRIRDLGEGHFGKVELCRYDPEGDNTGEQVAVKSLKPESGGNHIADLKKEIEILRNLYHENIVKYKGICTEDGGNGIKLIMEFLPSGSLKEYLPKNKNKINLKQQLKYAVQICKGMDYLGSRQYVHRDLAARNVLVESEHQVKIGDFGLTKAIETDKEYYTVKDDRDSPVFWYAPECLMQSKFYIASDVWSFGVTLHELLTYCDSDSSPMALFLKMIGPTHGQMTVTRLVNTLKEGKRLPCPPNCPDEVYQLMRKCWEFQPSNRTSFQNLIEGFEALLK
T2 sequence (O60674 whole entry): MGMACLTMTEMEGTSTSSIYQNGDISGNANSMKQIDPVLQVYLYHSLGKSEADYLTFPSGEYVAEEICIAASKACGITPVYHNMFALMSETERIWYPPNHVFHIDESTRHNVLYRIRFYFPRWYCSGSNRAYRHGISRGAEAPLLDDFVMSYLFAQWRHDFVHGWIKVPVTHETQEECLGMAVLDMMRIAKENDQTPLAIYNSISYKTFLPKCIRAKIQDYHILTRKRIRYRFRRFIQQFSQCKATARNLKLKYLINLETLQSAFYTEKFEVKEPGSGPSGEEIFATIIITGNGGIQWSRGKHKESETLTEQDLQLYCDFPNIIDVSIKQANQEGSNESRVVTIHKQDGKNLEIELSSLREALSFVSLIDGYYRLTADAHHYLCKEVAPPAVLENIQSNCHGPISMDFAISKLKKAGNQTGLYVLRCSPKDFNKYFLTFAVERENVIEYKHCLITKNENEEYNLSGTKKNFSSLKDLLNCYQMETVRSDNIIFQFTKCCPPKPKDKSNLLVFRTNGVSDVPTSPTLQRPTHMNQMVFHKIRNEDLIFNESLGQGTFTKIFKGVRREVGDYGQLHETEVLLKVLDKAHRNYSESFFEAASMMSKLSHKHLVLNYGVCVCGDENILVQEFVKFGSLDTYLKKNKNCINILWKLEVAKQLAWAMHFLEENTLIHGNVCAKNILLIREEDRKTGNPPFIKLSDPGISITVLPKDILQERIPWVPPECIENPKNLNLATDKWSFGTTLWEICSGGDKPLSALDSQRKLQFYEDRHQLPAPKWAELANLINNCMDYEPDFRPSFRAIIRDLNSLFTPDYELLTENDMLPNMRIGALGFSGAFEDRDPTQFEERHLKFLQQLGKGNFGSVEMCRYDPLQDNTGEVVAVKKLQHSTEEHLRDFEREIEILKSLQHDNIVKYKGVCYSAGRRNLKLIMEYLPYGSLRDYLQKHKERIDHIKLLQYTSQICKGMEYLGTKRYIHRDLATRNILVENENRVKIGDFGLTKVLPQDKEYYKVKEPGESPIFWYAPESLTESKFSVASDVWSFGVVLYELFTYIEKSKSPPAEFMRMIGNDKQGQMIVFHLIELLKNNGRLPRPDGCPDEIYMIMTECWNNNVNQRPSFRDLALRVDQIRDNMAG

## C=CC(=O)NC1CCC=C(c2ccnc3[nH]cc(-c4ccncc4)c23)C1 (stereo not drawn) [Compound 2, N-(3-(3-(Pyridin-4-yl)-1H-pyrrolo[2,3-b]pyridin-4-yl)cyclohex-3-en-1-yl)acrylamide]
[1]
  IC50: > 10000 nM
[2]
  IC50: 3100 nM
[3]
  IC50: 0.38 nM

## C=CC(=O)NC1CCC=C(c2ccnc3[nH]cc(-c4cccnc4)c23)C1 (stereo not drawn) [Compound 4, N-(3-(3-(Pyridin-3-yl)-1H-pyrrolo[2,3-b]pyridin-4-yl)cyclohex-3-en-1-yl)acrylamide]
[1]
  IC50: 7000 nM
[2]
  IC50: 2600 nM
[3]
  IC50: 0.53 nM

## C=CC(=O)NC1CCC=C(c2ccnc3[nH]cc(-c4ccc(C=O)o4)c23)C1 (stereo not drawn) [Compound 9, N-(3-(3-(5-Formylfuran-2-yl)-1H-pyrrolo[2,3-b]pyridin-4-yl)cyclohex-3-en-1-yl)acrylamide]
[1]
  IC50: 2400 nM
[2]
  IC50: 430 nM
[3]
  IC50: < 0.3 nM

## C=CC(=O)NC1CCC=C(c2ccnc3[nH]cc(-c4cncc(CO)c4)c23)C1 (stereo not drawn) [Compound 11, N-(3-(3-(5-(Hydroxymethyl)pyridin-3-yl)-1H-pyrrolo[2,3-b]pyridin-4-yl)cyclohex-3-en-1-yl)acrylamide]
[1]
  IC50: 9500 nM
[2]
  IC50: 1900 nM
[3]
  IC50: 0.49 nM

## C=CC(=O)NC1CCC=C(c2ccnc3[nH]cc(-c4cncs4)c23)C1 (stereo not drawn) [Compound 13, N-(3-(3-(Thiazol-5-yl)-1H-pyrrolo[2,3-b]pyridin-4-yl)cyclohex-3-en-1-yl)acrylamide]
[1]
  IC50: 5200 nM
[2]
  IC50: 2000 nM
[3]
  IC50: 0.34 nM

## C=CC(=O)NC1CCC=C(c2c(OC)cnc3[nH]cc(-c4ccco4)c23)C1 (stereo not drawn) [Compound 17, N-(3-(3-(Furan-2-yl)-5-methoxy-1H-pyrrolo[2,3-b]pyridin-4-yl)cyclohex-3-en-1-yl)acrylamide]
[1]
  IC50: 860 nM
[2]
  IC50: 170 nM
[3]
  IC50: < 0.3 nM

## C=CC(=O)NC1CCC=C(c2c(-c3cnn(C)c3)cnc3[nH]cc(-c4cccnc4)c23)C1 (stereo not drawn) [Compound 19, N-(3-(5-(1-Methyl-1H-pyrazolo-4-yl)-3-(pyridin-3-yl)-1H-pyrrolo[2,3-b]pyridin-4-yl)cyclohex-3-en-1-yl)acrylamide]
[1]
  IC50: 1000 nM
[2]
  IC50: 280 nM
[3]
  IC50: 0.51 nM

## C=CC(=O)NC1CCC=C(c2ccnc3[nH]cc(C4=CCCCC4)c23)C1 (stereo not drawn) [Compound 30, N-(3-(3-(cyclohex-1-en-1-yl)-1H-pyrrolo[2,3-b]-pyridin-4-yl)cyclohex-3-en-1-yl)acrylamide]
[1]
  IC50: 3200 nM
[2]
  IC50: 1400 nM
[3]
  IC50: 0.48 nM

## C=CC(=O)NC1CCC=C(c2ccnc3[nH]cc(C4=CCOCC4)c23)C1 (stereo not drawn) [Compound 31, N-(3-(3-(3,6-Dihydro-2H-pyran-4-yl)-1H-pyrrolo[2,3-b]pyridin-4-yl)cyclohex-3-en-1-yl)acrylamide]
[1]
  IC50: 7700 nM
[2]
  IC50: 3000 nM
[3]
  IC50: 0.71 nM

## C=CC(=O)NC1CCC=C(c2ccnc3[nH]cc(C4=CC(=O)CCC4)c23)C1 (stereo not drawn) [Compound 32, N-(3-(3-(3-Oxocyclohex-1-en-1-yl)-1H-pyrrolo[2,3-b]pyridin-4-yl)cyclohex-3-en-1-yl)acrylamide]
[1]
  IC50: > 10000 nM
[2]
  IC50: 3000 nM
[3]
  IC50: 0.72 nM

## C=CC(=O)NC1CCC=C(c2ccnc3[nH]cc(C4=CCCC4)c23)C1 (stereo not drawn) [Compound 33, N-(3-(3-(Cyclocyclopent-1-en-1-yl)-1H-pyrrolo[2,3-b]pyridin-4-yl)cyclohex-3-en-1-yl)acrylamide]
[1]
  IC50: 3600 nM
[2]
  IC50: 1400 nM
[3]
  IC50: 0.6 nM

## C=CC(=O)NC1CCC=C(c2ccnc3[nH]cc(-c4cccnc4F)c23)C1 (stereo not drawn) [Compound 38, N-(3-(3-(2-Fluoropyridin-3-yl)-1H-pyrrolo[2,3-b]pyridin-4-yl)cyclohex-3-en-1-yl)acrylamide]
[1]
  IC50: 5800 nM
[2]
  IC50: 2500 nM
[3]
  IC50: 0.67 nM

## C=CC(=O)NC1CCC=C(c2ccnc3[nH]cc(-c4ccc(N)nc4)c23)C1 (stereo not drawn) [Compound 39, N-(3-(3-(6-Aminopyridin-3-yl)-1H-pyrrolo[2,3-b]pyridin-4-yl)cyclohex-3-en-1-yl)acrylamide]
[1]
  IC50: > 10000 nM
[2]
  IC50: 4800 nM
[3]
  IC50: 0.83 nM

## C=CC(=O)NC1CCC=C(c2ccnc3[nH]cc(-c4ccc[n+]([O-])c4)c23)C1 (stereo not drawn) [Compound 43, 3-(4-(5-Acrylamidecyclohex-1-en-1-yl)-1H-pyrrolo[2,3-b]pyridin-3-yl)pyridine 1-oxide]
[1]
  IC50: > 10000 nM
[2]
  IC50: 9100 nM
[3]
  IC50: 0.93 nM

## C=CC(=O)NC1CCC=C(c2c(C#N)cnc3[nH]cc(-c4ccco4)c23)C1 (stereo not drawn) [Compound 45, N-(3-(5-Cyano-3-(furan-2-yl)-1H-pyrrolo[2,3-b]pyridin-4-yl)cyclohex-3-en-1-yl)acrylamide]
[1]
  IC50: 1600 nM
[2]
  IC50: 440 nM
[3]
  IC50: 0.34 nM

## C=CC(=O)NC1CCC=C(c2ccnc3[nH]cc(-c4nnc(C)o4)c23)C1 (stereo not drawn) [Compound 50, N-(3-(3-(5-Methyl-1,3,4-oxadiazol-2-yl)-1H-pyrrolo[2,3-b]pyridin-4-yl)cyclohex-3-en-1-yl)acrylamide]
[1]
  IC50: 3800 nM
[2]
  IC50: 920 nM
[3]
  IC50: 0.62 nM
